This is an account of results in paper PMC10743537 (2023).

The structures appear in SMILES notation.

The assay has as its system nicked decamer duplex 3 (DNA, duplex, PEG(6) tether between positions 5 and 6 (C10/G11 in paper numbering) and between positions 15 and 16 (C20/G1); nick between T5 (3' end, position 20) and G6 (5' end, position 1)) GTCGCGCGACAACGCGCGTT
Briefly: NMR diffusion (DOSY). The settings on record: 25 mM NaCl, 25 mM K3PO4; D2O buffer, pH 6.0, 10 °C; 0.60 mM each; 1:1 model assumed, self-association neglected.

Take `CCc1c2c(nc3ccc(O)cc13)-c1cc3c(c(=O)n1[C@@H]2CN1CCCC1)COC(=O)[C@]3(O)CC`: the Ka stood at 150 mM⁻¹.

Take `CCc1c2c(nc3ccc(O)cc13)-c1cc3c(c(=O)n1[C@H]2CN1CCCC1)COC(=O)[C@]3(O)CC`: the Ka was determined as 76 mM⁻¹.
